Test results from patent publication US20020077355A1, “Use of epoxyeicosatrienoic acids in the treatment of cerebrovascular conditions” (priority 2000, published 2002).
Values joined by “and” are separate entries in the source; they are usually repeats but may differ in a detail not shown here. Identical values can stand only once.

Tests used:
[1] = system: rat cerebellar granule cell (CGC) cultures; assay: H2O2 oxidative stress, apoptosis scored by Hoechst stain for nuclear condensation; type: cell-based; conditions: H2O2 225 μM for 10 min, 11,12-EET 1.2 μM present; without 11,12-EET 87.6%; p<0.01
Protocol: (§1) Cerebellar cortices of postnatal day 7 rat pups were isolated, incubated in 0.25% trypsin for 20 min and triturated with a 10-cc Falcon pipette. Cells were plated on Falcon plastic dishes ˜100,000 cells/cm^2 in BME medium containing 25 mM KCl. Cell cultures were maintained in a humidified 5% CO2 /37° C. incubator. 10 μM AraC was added from day 2-3 in vitro to suppress glial proliferation. Cells were studied at day 7-8 in vitro.
(§2) To test the effects of EET during oxidative stress, rat cerebellar granule cell (CGC) cultures were subjected to H2O2 treatment (225 μM for 10 min.). Less apoptosis was found at 24 hour when 11,12-EET (1.2 μM) was present compared to cell culture without 11,12-EET (51.7% vs. 87.6% respectively, p<0.01, scored by Hoechst stain for nuclear condensation). In addition, superoxide production (as monitored by oxidation of dihydroethidine) was decreased when 11,12-EET was present in CGC cultures during H2O2 treatment.

[2] = system: mice subjected to middle cerebral artery occlusion; assay: Focal cerebral ischemia by middle cerebral artery occlusion, infarct volume; type: in vivo; conditions: for Infarct Volume, individual animal / Infarct Volume, Mean: mice, MCA occlusion; for Infarct Volume, individual animal: 24 hours
Source text: Young adult male mice (C57B1/J6, Jackson Laboratories) weighing 20-25 g, were given free access to food and water prior to experimentation.
(§3) Ischemia was produced by occluding the left middle cerebral artery (MCA) with a silicon-coated 8-0 nylon monofilament under anesthesia as described (Huang, Z et al., J Cereb Blood Flow Metab, 1996, 16:981-987, Huang, Z et al., Science, 1994, 265:1883-1885, Hara, H et al., J Cereb Blood Flow Metab, 1997, 1:515-526). Arterial blood pressure, heart rate, arterial oxygen pressure, and partial pressure of carbon dioxide were monitored as described (Huang, Z et al., J Cereb Blood Flow Metab, 1996, 16:981-987, Huang, Z et al., Science, 1994, 265:1883-1885, Hara, H et al., J Cereb Blood Flow Metab, 1997, 1:515-526).
11,12 EET (Sigma Chemical Co., St Louis, Mo.) or vehicle was administered by an infusion pump (Harvard Apparatus, South Natick, Mass.) with a tethering device (Instech, Plymouth Meeting, Pa.) into the femoral vein at the rate of 0.2 ml/hour for 2 hours beginning after the onset of ischemia to deliver a dose of 30, 100, and/or 300 μg/kg/hour. Control animals received the equivalent amount of vehicle alone. During infusion, the anesthesia was discontinued. […] After infusion, the animals were re-anesthetized with halothane and the venous catheter was removed. The filaments were withdrawn after 2 hours and after 24 hours, and mice were sacrificed. Brains were divided into five coronal 2-mm sections using a mouse brain matrix (RBM-200C, Activated Systems, Ann Arbor, Mich., USA). Infarction volume was quantitated with an image analysis system (M4, St. Catharines, Ontario, Canada) on 2% 2,3,5-triphenyltetrazolium chloride (Sigma Chemical Co., St Louis, Mo.) stained 2-mm slices.
(§4) Data is expressed as means ±SE. Statistical evaluation was performed by Student's t-test to compare infarct volumes between groups. Analysis of variance with repeated measures followed by Dunnett's t-test was used to test the significance of rCBF and resistance changes between groups. p<0.05 was considered statistically significant.

[3] = system: mean arterial blood pressure (MABP) in mice; assay: Mean arterial blood pressure in animals with focal cerebral ischemia; type: in vivo; conditions: FIG. 3
Source text: as §3
In a separate set of ventilated, halothane-anesthetized animals, regional cerebral blood flow (rCBF) was determined at the margins (“penumbra”) of ischemic infarcts using laser Doppler flowmetry (Perimed, PF-2B, Stockholm, Sweden) and recorded on a MacLab/8 data acquisition system (AD Instruments, Milford, Mass.). the left femoral artery and vein were cannulated for blood pressure measurement, blood gas determination and drug administration, a fiberoptic probe (Perimed PF-319:2, diameter=0.5 mm) was fixed to the skull, 4 mm lateral and 2 mm posterior to bregma on the ipsilateral hemisphere and away from large pial vessels. […]

[4] = system: rat cerebellar granule cell (CGC) cultures; assay: Dihydroethidine study to monitor intracellular superoxide production; type: cell-based; conditions: CGC cultures during H2O2 treatment, 11,12-EET 1.2 μM
Protocol: as §1
Dihydreothidine study to monitor intracellular superoxide production: 10 μl of dihydroethidine stock solution (1 mg/cc) in dimethylsulfoxide (DMSO) and 4 μl of H2O2 were added to 4cc of Eagle's Basal Medium (medium A). Each 2-cm^2 well of containing neuronal cell culture was preincubated with 11.12-EET (1.2 μM) for an hour and was replaced with 250 μL of medium A in the presence or absence of 11,12-EET (1.2 μM). […]
as §2

[5] = system: regional cerebral blood flow (rCBF) in mice; assay: Regional cerebral blood flow by laser Doppler flowmetry after MCA occlusion; type: in vivo
Protocol: In a separate set of ventilated, halothane-anesthetized animals, regional cerebral blood flow (rCBF) was determined at the margins (“penumbra”) of ischemic infarcts using laser Doppler flowmetry (Perimed, PF-2B, Stockholm, Sweden) and recorded on a MacLab/8 data acquisition system (AD Instruments, Milford, Mass.). the left femoral artery and vein were cannulated for blood pressure measurement, blood gas determination and drug administration, a fiberoptic probe (Perimed PF-319:2, diameter=0.5 mm) was fixed to the skull, 4 mm lateral and 2 mm posterior to bregma on the ipsilateral hemisphere and away from large pial vessels. This coordinate identifies the site on the convex brain surface within the vascular territory supplied by the distal segment of the MCA (Huang, Z et al., Science, 1994, 265:1883-1885; Yang, G et al., Stroke, 1994, 25:165-70). rCBF was recorded continuously before, during and after MCA occlusion. The mean values after MCA occlusion and before administration were taken as baseline, and the data thereafter were expressed as percentages of the baseline value. The percent change in cerebrovascular resistance was calculated using the following formula: Δ%R=Δ% MABP/Δ% rCBF, where Δ% MABP is percent change in mean arterial blood pressure.
as §4
Physiological variables during laser-Doppler flowimetry in anesthetized, ventilated, EET-treated and vehicle-treated mice are shown in FIGS. 2 and 3. Values are reported as mean +/− SEM. CBF denotes cerebral blood flow; MABP indicates mean arterial blood pressure.
FIG. 2 is a graph showing regional CBF changes in EET-treated and vehicle-treated mice for 80 min after EET (300 μg/kg total dose) or vehicle infusion at a constant rate of 100 μl/kg/min over 20 min. Error bars denote standard error of the mean (SEM); CBF change with baseline control was determined by one-way ANOVA followed by Fisher's protected least-squares difference test. The increase in rCBF began at 5-10 minutes and achieved statistical significance at 10-15 minutes after infusion. Maximum values achieved at 40-60 min reached 50% above baseline levels.

CCCCC/C=C\CC1OC1C/C=C\C/C=C\CCCC(=O)O (stereo not drawn) [EET, 11,12-epoxyeicosatrienoic acid]
Apoptosis at 24 hour [1]: 51.7%
Reduction of infarct volume in comparison to vehicle-treated animals ([2]; 300 μg/kg group, n=7, p<0.05): at least 41%
Infarct volume, of hemispheric volume ([2]; 300 μg/kg group, n=7, vehicle 34±3, means ±SE): 20±3
Infarct Volume, individual animal ([2]; EET 30 μg/kg i.v. infusion): 32.4 mm^3 and 43.0 mm^3 and 41.9 mm^3 and 27.7 mm^3 and 37.4 mm^3 and 23.7 mm^3
Infarct Volume, Mean ([2]; EET 30 μg/kg, n=6): 34.3 mm^3
Infarct Volume, individual animal ([2]; EET 100 μg/kg i.v. infusion): 34.1 mm^3 and 37.6 mm^3 and 22.4 mm^3 and 16.3 mm^3 and 24.5 mm^3 and 38.6 mm^3 and 11.8 mm^3
Infarct Volume, Mean ([2]; EET 100 μg/kg, n=7): 26.5 mm^3
Infarct Volume, individual animal ([2]; EET 300 μg/kg i.v. infusion): 32.5 mm^3 and 13.4 mm^3 and 13.1 mm^3 and 28.3 mm^3 and 11.8 mm^3 and 25.6 mm^3 and 13.6 mm^3
Infarct Volume, Mean ([2]; EET 300 μg/kg, n=7): 19.7 mm^3
Change in MABP, EET-treated vs. vehicle-treated animals [3]: No significant changes
Superoxide production (oxidation of dihydroethidine) [4]: decreased
Time at which the increase in rCBF began ([5]; 300 μg/kg i.v.): 5 to 10 min
Effect on rCBF in parietal cortex ([5]; 300 μg/kg i.v. total dose infused over 20 min, vehicle did not increase rCBF): increased rCBF
Time at which the rCBF increase achieved statistical significance ([5]; 300 μg/kg i.v., after infusion): 10 to 15 min
Maximum rCBF above baseline levels ([5]; 300 μg/kg i.v., at 40-60 min): 50%
